Marks after values point to notes of the source that are not given here.

In the test the test system is Solid tumor cell line S180. As to the kind of experiment: In-vivo anti-tumor experiment after S180 tumor inoculation in mice. Set-up: species or system ICR mice. The conditions noted are these: 9 days; for relative tumor weight mean ± SD: S180 tumor-bearing ICR mice; for inhibition rate: vs model group. On the procedure:
Solid tumor cell line S180 cryopreservation tube were taken out from a liquid nitrogen tank and quickly placed into water at 37° C. with occasional shaking. After cryopreserved cell mother liquor was thawed, the lid edge of the cryopreservation tube was wiped with an alcohol swab. The thawed cell liquor was injected intraperitoneally into the peritoneal cavities of ICR mice by a syringe. The mice were kept at room temperature of 25±5° C., humidity of 60±10%, natural light, and free to ingest food and water. After about one week, ascites in the peritoneal cavities of the ICR mice were sucked by a syringe and injected into the peritoneal cavities of new ICR mice at a dose of 0.5 ml per mouse for passage for standby application.
ICR class II mice, weighing about 18-22 g. Feeding conditions: room temperature of 25±5° C., humidity of 60±10%, natural light, free intake of water, and all mice were kept in the feeding environment for adaptive feeding for four days, fasted for 12 h before the experiment, free intake of water.
The experimental instruments were placed in a clean table and sterilized for about 30 min by turning on a UV lamp. The mice that were injected with ascites (about one week) were sacrificed by cervical dislocation, and abdomens of the mice were wiped with an alcohol swab. A 20 ml syringe was selected to suck the ascites (milky white is preferred) from the mice. The sucked ascites were placed in a sterile vial, and the vial was placed in a small box with ice. A certain amount of ascites was sucked onto a counting plate and placed under a microscope for counting, and the number of the cells was 10^7 as a base for tumor inoculation (1:2) and passage (1:5).
The adaptively fed ICR class II male mice were taken, and wiped with an alcohol swab on the armpit areas of the right forelimbs. The axillary cavities of the right forelimbs of the mice were inoculated with diluted mice ascite cell (10^7 cells) suspension at 0.2 ml per mouse. After tumor inoculation, the mice were fed and watered freely. One hour later, the drug was administered by gavage.
168 ICR class II male mice with a weight of 18-22 g were used. The mice were kept under the conditions of the item 2.2 for adaptive feeding for four days before the experiment. After four days, the mice were weighed and their autonomy was measured. […] Each mouse was inoculated with S180 tumor according to the method in the item 2.3, and the drug was administered by gavage after inoculation.
A appropriate amount of test samples were weighed precisely, and prepared into test sample solutions having the desired concentrations by using a 5 vol % ethanol aqueous solution as a solvent, i.e.: the effective parts of 5 mg/kg, 10 mg/kg and 20 mg/kg correspond to the test sample solutions of the groups of the effective part 5, effective part 10, and effective part 20, respectively; E-6-O-(p-coumaroyl)scandoside methyl ester of 2.5 mg/kg, 5 mg/kg, 10 mg/kg, and 20 mg/kg correspond to the test sample solutions of the groups of methyl ester 2.5, methyl ester 5, methyl ester 10 and methyl ester 20, respectively; kaempferol-3-O-[2-O-(6-O-E-feruloyl)-β-D-glucopyranosyl]-β-D-galactopyranose of 2.5 mg/kg, 5 mg/kg, 10 mg/kg and 20 mg/kg correspond to the test sample solutions of the groups of kaempferol 2.5, kaempferol 5, kaempferol 10 and kaempferol 20, respectively. […] Each mouse was administered by gavage at a dose of 0.2 ml/10 g. During the administration period, the mice were fed at 3 g/mouse and ingested water and food freely. All mice were continuously administered for 9 days, and sacrificed by decapitation on day 10. Blood, tumor, liver, spleen, and thymus of mice were collected. The blood collected was placed in a low temperature environment and sent out for blood check. The weight of the tumor, liver, spleen, and thymus and the size of the tumor were recorded.

Consider `COC(=O)C1=COC(O[C@@H]2O[C@H](CO)[C@@H](O)[C@H](O)[C@H]2O)C2C(CO)=CC(OC(=O)/C=C/c3ccc(O)cc3)C12` (stereo partly shown) [Methyl ester, E-6-O-(p-coumaroyl)scandoside methyl ester], for which the “relative tumor weight mean ± SD” value by setting is: (2.5 mg/kg by gavage) 6.49 ± 1.56* 10^−2; (5 mg/kg by gavage) 4.24 ± 2.24* 10^−2; (10 mg/kg by gavage) 5.81 ± 2.19* 10^−2; (20 mg/kg by gavage) 5.98 ± 1.19* 10^−2. Besides, the inhibition rate runs as follows: (2.5 mg/kg by gavage) 21.92%; (5 mg/kg by gavage) 48.97%; (5 mg/kg by gavage, listed as E-6-O-(p-coumaroyl)scandoside methyl ester) 48.97%; (10 mg/kg by gavage) 30.17%; (20 mg/kg by gavage) 28.06%. Besides, the “best dose for tumor inhibition” value (dose with the highest inhibition rate, gavage) is listed as 5 mg/kg.
